Results on one compound are retold here after PMC9202104 (BMC Biology, 2022).

The test system of series [1] is ZIKV human strain PAN2016 (2016/Panama). As to the kind of experiment: Plaque assay, inhibition of ZIKV infection (strain PAN2016). Here is the method:
(§1) After removal of the unbound compounds by centrifugation (after addition of 3% PEG-6000), ZIKV was incubated with Vero E6 cells in 24-well plates at 37°C for 1 h. The cells were then washed with PBS, overlaid with DMEM containing 1% carboxymethyl cellulose and 2% FBS, and cultured at 37°C for 4–5 days, followed by being stained with 0.5% crystal violet. […] Plaques in each well were calculated, and IC50 of compounds for each compound was calculated using the CalcuSyn computer program.

Series [2] relates to ZIKV mosquito strain MEX 2-81. As to the kind of experiment: Plaque assay, inhibition of ZIKV infection (strain MEX 2-81). The format is cell-based. The conditions noted are these: Zika virus, Vero C1008, read-out: IC50 MEX 2-81. Here is the method:
as §1

The test system of series [3] is ZIKV rhesus macaque strain MR 766. As to the kind of experiment: Plaque assay, inhibition of ZIKV infection (strain MR 766). It is filed as cell-based. The conditions noted are these: Zika virus, Vero C1008, read-out: IC50 MR 766. Here is the method:
as §1

Another series has as its system ZIKV human strain FLR. Put plainly: Plaque assay, inhibition of ZIKV infection (strain FLR). It is filed as cell-based. The conditions noted are these: Zika virus, Vero C1008, read-out: IC50 FLR. Here is the method: as §1
For series [4], the system named is ZIKV human strain R103451. Put plainly: Plaque assay, inhibition of ZIKV infection (strain R103451). The format is cell-based. The conditions noted are these: Zika virus, Vero C1008, read-out: IC50 R103451. Here is the method: as §1
In series [5] the test system is ZIKV human strain PRVABC59. As to the kind of experiment: Plaque assay, inhibition of ZIKV infection (strain PRVABC59). The format is cell-based. The conditions noted are these: Zika virus, Vero C1008, read-out: IC50 PRVABC59. Here is the method: as §1
The test system of series [6] is ZIKV human strain PLCal_ZV. As to the kind of experiment: Plaque assay, inhibition of ZIKV infection (strain PLCal_ZV). The format is cell-based. The conditions noted are these: Zika virus, Vero C1008, read-out: IC50 PLCal_ZV. Here is the method: as §1
Series [7] deals with ZIKV human strain IbH 30656. As to the kind of experiment: Plaque assay, inhibition of ZIKV infection (strain IbH 30656). The format is cell-based. The conditions noted are these: Zika virus, Vero C1008, read-out: IC50 IbH 30656. Here is the method:
as §1

Series [8] relates to 8 human ZIKV strains (PAN2016, R116265, PAN2015, FLR, R103451, PRVABC59, PLCal_ZV, IbH 30656). Put plainly: microbe, parasite or virus in culture. It is filed as cell-based. The conditions noted are these: Zika virus, read-out: Average IC50 (human strains). Here is the method: as §1
Series [9] is described as follows: Cytotoxicity, Cell Counting Kit-8, Vero E6 cells. It is filed as cell-based. The conditions noted are these: African green monkey, CC50 Vero E6. Here is the method: (§2) Briefly, compounds at 2-fold serial dilutions were added to the respective cells (2.0×10^4/well) pre-seeded in 96-well plates. The cells were cultured at 37°C in the presence of 5% CO2 for 3 days, […] incubated with CCK8 solution, followed by measurement of absorbance at 450 nm (A450 value), using a microplate reader (Infinite F200PRO, Tecan, Morrisville, NC, USA). CC50 of compounds was calculated using the CalcuSyn program.
(In general: Tetrazolium dyes change colour on reduction, which living cells bring about.)

Another series relates to Vero E6 cells. Put plainly: Cytotoxicity, Cell Counting Kit-8, Vero E6 cells. The format is cell-based. The conditions noted are these: African green monkey, 3 days. Here is the method: as §2
The nature of the next series: in vitro. The format is cell-based. The conditions noted are these: rhesus monkey. Here is the method: as §2
Another series has as its system DENV-1-V1792. Put plainly: Plaque assay, inhibition of DENV-1 infection in LLC-MK2 cells. It is filed as cell-based. The conditions noted are these: Dengue virus, DENV1.
For another series, the system named is DENV-2-V594. As to the kind of experiment: Plaque assay, inhibition of DENV-2 infection in LLC-MK2 cells. The format is cell-based. The conditions noted are these: Dengue virus, DENV2.
For the next series, the system named is DENV-3-V1043. As to the kind of experiment: Plaque assay, inhibition of DENV-3 infection in LLC-MK2 cells. It is filed as cell-based. The conditions noted are these: Dengue virus, DENV3.
The next series concerns DENV-4-PR-06-65-740. Put plainly: Plaque assay, inhibition of DENV-4 infection in LLC-MK2 cells. The format is cell-based. The conditions noted are these: Dengue virus, DENV4.
Series [10] deals with ZIKV human strain R103451. Put plainly: Lethal ZIKV challenge in adult Ifnar1−/− mice, survival and weight. The conditions noted are these: ZIKV R103451 200 PFU. It is filed as in vivo. Here is the method: (§3) Briefly, 7–8-week-old male mice were used, and two separate experiments were performed. […] These mice were i.p. infected with ZIKV (human strain R103451, 200 PFU/mouse) and observed daily for weight changes and survival until 21 dpi. […] Five days later, these mice were sacrificed, and their tissues, including the heart, testis, eye, kidney, and brain, were collected for detection of viral titers by plaque assay, or apoptosis by immunofluorescence staining. Mice losing 20% of initial weight with severe symptoms, including hind limb weakness and paralysis, or 25% of initial weight, were humanely euthanized with an overdose isoflurane in a Bell Jar, followed by cervical dislocation.

For series [11], the system named is ZIKV human strain PAN2016. Put plainly: ZIKV challenge in adult Ifnar1−/− mice, tissue viral titers and immunofluorescence. The conditions noted are these: 20 mg/kg i.p.; ZIKV PAN2016 200 PFU; 5 dpi; compared to DMSO-treated mice. The format is in vivo. Here is the method: as §3
Plaque assay was used to detect viral titers in ZIKV-infected tissues. Briefly, tissues were homogenized with cold culture medium (DMEM + 2% FBS) and then centrifuged (2000 g at 4°C for 10 min). Supernatants were serially diluted to infect Vero E6 cells in 24-well plates. ZIKV titers in tissues were measured from ~40 mg of samples; thus, the detection limit was about 25 PFU/g of tissues.
Immunofluorescence staining was carried out to detect ZIKV and caspase-3 signals in ZIKV-infected mouse tissues. Briefly, tissues were fixed in 4% formaldehyde, embedded in paraffin, and sectioned. The tissue sections were deparaffinized, fixed, and permed using the FIX and PERM Cell Permeabilization Kit (Thermo Fisher Scientific, Waltham, MA, USA). After blocking with 5% BSA, the tissue slides were incubated at 37°C 2 h with ZIKV EDIII-specific human mAb (ZV-67, 1:100, Absolute Antibody, Boston, MA, USA), or rabbit anti-active caspase-3 antibody (1:100, Abcam). The slides were washed with PBS and incubated for 30 min with anti-human FITC antibody (1:100, for ZIKV), or anti-rabbit Alexa Fluor 647 antibody (1:100, for caspase-3). The slides were then counterstained for nuclei, using DAPI (300 nM, Thermo Fisher Scientific, Waltham, MA, USA) for 5 min, and mounted in VectaMount Permanent Mounting Medium (Vector Laboratories, CA, USA). The slides were analyzed using a confocal microscope (Zeiss LSM 880) and ZEN software, and fluorescent signals were quantified by ImageJ software.

Another series relates to DENV-2 human strain V594. As to the kind of experiment: DENV-2 challenge in Ifnar1−/− mice, flow cytometry titers. It is filed as in vivo. The conditions noted are these: C6/36 cells, flow cytometry, 3 dpi, 20 mg/kg i.p., representative image. Here is the method: Three days after infection, sera and tissues, including the brain, kidney, and heart, were collected and assessed for DENV infection using a flow cytometry assay, as described below. Tissues were freshly homogenized with cold culture medium (EMEM + 2% FBS) and centrifuged at 4°C and 2000 g for 10 min. Serially diluted tissue supernatants and sera were added to C6/36 cells, as described below. DENV titers in tissues or sera were assessed from ~20 mg of tissue samples, or 25 μl of sera, and used for subsequent flow cytometry analysis.
Flow cytometry assay was carried out to analyze DENV-2 titers in the supernatants of homogenized tissues and sera from DENV-2-infected mice collected above. Briefly, homogenized tissue supernatants or sera were added to C6/36 cells (5×10^5 cells/well) pre-seeded in 24-well plates which the culture medium was removed, and the cells were incubated for 1 h (28°C, 5% CO2). After incubation, the cells were washed with PBS, incubated with EMEM containing 2% FBS, and then cultured for 3 days as described above. After further removal of medium, the cells were digested, washed with PBS, and resuspended in FIX/PERM solution (Tonbo Biosciences, San Diego, CA, USA), followed by incubation at 4°C for 1 h in the dark. The cells were then sequentially incubated with mouse anti-flavivirus mAb 4G2 (2 μg/ml) at 37°C for 1 h and FITC-labeled anti-mouse IgG (0.5 mg/ml, BioLegend, San Diego, CA, USA) at 37°C for 30 min, followed by analysis using a FACScan flow cytometer and Summit software. Viral titers (infectious units/ml or infectious units/g) were calculated using the formula ((% of infected cells)×(total number of cells)×(dilution factor)/(amount of inoculum added to cells)).
For orientation: Flow cytometry measures light scatter and fluorescence of single cells or particles in a stream.

Each structure is given as a SMILES string. Like-named read-outs stand apart in the source and are kept apart here.

In general, IC50 refers to the point on the concentration scale where inhibition reaches its midpoint. One may read the CC50 as the concentration giving 50% cytotoxicity. On to `Cc1cc2c(C(C)C)c(O)c(O)c(C=O)c2c(O)c1-c1c(C)cc2c(C(C)C)c(O)c(O)c(C=O)c2c1O` [Gossypol, reference compound], for which the IC50 in [1] (Zika virus, Vero C1008, in Homo sapiens, read-out: IC50 against infection of ZIKV PAN2016, plaque assay, Vero E6 cells) was 3.8 µM; in series [1] (read-out: IC50 against infection of ZIKV PAN2016, plaque assay, Vero E6 cells) it was 3.78 ± 0.3 µM; in series [2], 2.9 µM; in [3] it was 4.1 µM; with ZIKV human strain FLR, 0.7 µM; in [4] it was 3.1 µM. For the same compound, the 50% inhibitory concentration (IC50) in [5] was 4.6 µM; in series [6], 2.9 µM; in series [7] it was 3.4 µM; in series [8] it was 3.4 µM; in the series with DENV-1-V1792, 2.06 ± 0.13 µM; in the series on DENV-2-V594, 1.91 ± 0.01 µM. For the same compound, the IC50 was determined as 3.42 ± 0.11 µM in the series with DENV-3-V1043 and 2.83 ± 0.07 µM with DENV-4-PR-06-65-740. The CC50 at 3 days in series [9] amounted to 14.5 µM; in the series “in vitro” it was 19.1 ± 1.09 µM. The compound also yielded a CC50 with Vero E6 cells of 14.49 ± 0.07 µM. The “Mice protected from death (survival)” value in series [10] (20 mg/kg i.p. 12 h before and 6, 24, 48 h post-infection, observed 21 days) is on record as “no mice treated with gossypol survived at 6 dpi”. In addition, the Weight loss result in [10] (20 mg/kg i.p., ST087010 figure during 6–12 dpi) was “increased weight loss”. Further, in series [11], the “Viral titers in the heart, kidney, and brain” value is “significantly higher”. For the same compound, the “DENV-2 in brain, percentage of infected cells” value in the series with DENV-2 human strain V594 is recorded as 3.6%. Further, the “DENV-2 in heart, percentage of infected cells” value in the series on DENV-2 human strain V594 is given as 3.8%. For the same compound, the “DENV-2 in kidney, percentage of infected cells” value in the series with DENV-2 human strain V594 was 4.1%. For the same compound, in the series with DENV-2 human strain V594, the “DENV-2 in sera, percentage of infected cells” value is listed as 50.9%.
